Measured values reported in ChEMBL document CHEMBL1201862, “PubChem BioAssay data set” (2004).
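Dose response: 5 concentrations. Exposure: 48 h. Format: 96-well plates. Endpoint: linear interpolation; highest concentration if not reached. Abbreviation: GI50, concentration required for 50% inhibition of growth.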 Active and inactive are the calls of the source. No stated cut-off is given here; in the data, active = GI50 up to about 1.1 µM and inactive = higher.

What was measured:
Assay in all cases: NCI-60 cell line screen, 48 h
786-0 = test system: 786-0
A549 = test system: A549
CCRF-CEM = test system: CCRF-CEM
HCT-15 = test system: HCT-15
HL-60 = test system: HL-60
HOP-62 = test system: HOP-62
K562 = test system: K562
KM-20L2 = test system: KM-20L2
MOLT-4 = test system: MOLT-4
SF-539 = test system: SF-539
SK-MEL-28 = test system: SK-MEL-28
SK-MEL-5 = test system: SK-MEL-5
SK-OV-3 = test system: SK-OV-3
SR = test system: SR
UACC-257 = test system: UACC-257
CAKI-1 = test system: CAKI-1
HOP-92 = test system: HOP-92
OVCAR-4 = test system: OVCAR-4

Compound | GI50 (786-0) | GI50 (A549) | GI50 (CCRF-CEM) | GI50 (HCT-15) | GI50 (HL-60) | GI50 (HOP-62) | GI50 (K562) | GI50 (KM-20L2) | GI50 (MOLT-4) | GI50 (SF-539) | GI50 (SK-MEL-28) | GI50 (SK-MEL-5) | GI50 (SK-OV-3) | GI50 (SR) | GI50 (UACC-257) | GI50 (CAKI-1) | GI50 (HOP-92) | GI50 (OVCAR-4)
CC1COC(C)(C)P(=O)(c2ccccc2)C1 (stereo unspecified) | > 100 µM (inactive) | > 100 µM (inactive) | > 100 µM (inactive) | > 100 µM | > 100 µM (inactive) | > 100 µM (inactive) | > 100 µM (inactive) | > 100 µM (inactive) | > 100 µM (inactive) | > 100 µM (inactive) | > 100 µM (inactive) | > 100 µM (inactive) | > 100 µM (inactive) | > 100 µM (inactive) | > 100 µM (inactive) | – | – | –
CC(=O)OCc1c2ccccc2c(C)c2c1cc(F)c1ccccc12 | 30.1 µM (inactive) | 32.4 µM (inactive) | 12.2 µM (inactive) | – | 23 µM (inactive) | 45.6 µM (inactive) | 21.2 µM (inactive) | 28.8 µM (inactive) | 7.74 µM (inactive) | 23.8 µM (inactive) | 97.5 µM (inactive) | 25.5 µM (inactive) | 52.5 µM (inactive) | 12.6 µM (inactive) | > 100 µM (inactive) | 31 µM (inactive) | 40.6 µM (inactive) | 24.2 µM (inactive)
C=C(c1ccccc1)[C@@]1(O)CCCC[C@H]1NC(c1ccccc1)c1ccccc1 | 12.7 µM (inactive) | 11.8 µM (inactive) | 4.34 µM (inactive) | 10.9 µM | 2.65 µM (inactive) | 15.1 µM (inactive) | 7.69 µM (inactive) | 13.8 µM (inactive) | 2.73 µM (inactive) | 15.9 µM (inactive) | 15.5 µM (inactive) | 9.51 µM (inactive) | 19.1 µM (inactive) | 1.7 µM (inactive) | 10.5 µM (inactive) | 7.67 µM (inactive) | 12.6 µM (inactive) | 14.1 µM (inactive)
COc1ccc2c(c1)[n+]([O-])c(C(=O)CC(=O)C(=O)Nc1cccc(C)c1C)c(C)[n+]2[O-] | > 100 µM (inactive) | > 100 µM (inactive) | > 100 µM (inactive) | > 100 µM | > 100 µM (inactive) | > 100 µM (inactive) | > 100 µM (inactive) | > 100 µM (inactive) | > 100 µM (inactive) | > 100 µM (inactive) | > 100 µM (inactive) | > 100 µM (inactive) | > 100 µM (inactive) | > 100 µM (inactive) | > 100 µM (inactive) | > 100 µM (inactive) | > 100 µM (inactive) | > 100 µM (inactive)
CC(=O)N1CCN(c2ccc(OCC3COC(Cn4ccnc4)(c4ccc(Cl)cc4Cl)O3)cc2)CC1 (stereo unspecified) [KETOCONAZOLE] | 36 µM (inactive) | 27.3 µM (inactive) | 27.6 µM (inactive) | 25.8 µM | 20.1 µM (inactive) | 39.4 µM (inactive) | 28.7 µM (inactive) | 32.7 µM (inactive) | 22.5 µM (inactive) | – | 34.6 µM (inactive) | 12.2 µM (inactive) | 55.8 µM (inactive) | 20.2 µM (inactive) | 20.7 µM (inactive) | 35.5 µM (inactive) | 41.7 µM (inactive) | 39.1 µM (inactive)
Cc1ccc(/C=N\NC2c3cc(Cl)ccc3Nc3nc(O)nc(C)c32)cc1 (stereo unspecified) | > 100 µM (inactive) | > 100 µM (inactive) | 96.6 µM (inactive) | – | 43.3 µM (inactive) | > 100 µM (inactive) | 56.5 µM (inactive) | > 100 µM (inactive) | 4.92 µM (inactive) | > 100 µM (inactive) | > 100 µM (inactive) | – | > 100 µM (inactive) | 7.29 µM (inactive) | 88.9 µM (inactive) | – | 43.3 µM (inactive) | –
C[C@]12CC[C@H](O)CC1=CC[C@@H]1C2CC[C@]2(C)C(=O)NC(=O)CC12 (stereo partly specified) | 55.5 µM (inactive) | > 100 µM (inactive) | 35.4 µM (inactive) | > 100 µM | > 100 µM (inactive) | > 100 µM (inactive) | 29 µM (inactive) | > 100 µM (inactive) | 30.6 µM (inactive) | > 100 µM (inactive) | > 100 µM (inactive) | > 100 µM (inactive) | > 100 µM (inactive) | 37.2 µM (inactive) | > 100 µM (inactive) | > 100 µM (inactive) | > 100 µM (inactive) | > 100 µM (inactive)
COc1ccc(Cn2c(C)nc3c2C(=O)c2ccccc2C3=O)cc1 | 5.4 µM (inactive) | 8.61 µM (inactive) | 4.05 µM (inactive) | 1.72 µM | 4.17 µM (inactive) | 11.6 µM (inactive) | 3.2 µM (inactive) | 11.6 µM (inactive) | 2.59 µM (inactive) | 3.81 µM (inactive) | 21 µM (inactive) | 7.71 µM (inactive) | 14.8 µM (inactive) | 1.44 µM (inactive) | 10.4 µM (inactive) | – | – | 15.5 µM (inactive)
Cc1ccc(S(=O)OC23CC4CC(CC(C4)C2)C3)cc1 (stereo unspecified) | > 100 µM (inactive) | > 100 µM (inactive) | – | > 100 µM | 19.4 µM (inactive) | > 100 µM (inactive) | > 100 µM (inactive) | > 100 µM (inactive) | 29.9 µM (inactive) | > 100 µM (inactive) | > 100 µM (inactive) | > 100 µM (inactive) | > 100 µM (inactive) | 35.7 µM (inactive) | > 100 µM (inactive) | > 100 µM (inactive) | > 100 µM (inactive) | > 100 µM (inactive)
CC(=O)C(CN(C(C)C)C(C)C)C(c1ccccc1)c1c(O)c2ccccc2oc1=O (stereo unspecified) | > 100 µM (inactive) | > 100 µM (inactive) | > 100 µM (inactive) | > 100 µM | > 100 µM (inactive) | > 100 µM (inactive) | > 100 µM (inactive) | > 100 µM (inactive) | > 100 µM (inactive) | > 100 µM (inactive) | > 100 µM (inactive) | > 100 µM (inactive) | > 100 µM (inactive) | > 100 µM (inactive) | > 100 µM (inactive) | > 100 µM (inactive) | – | > 100 µM (inactive)
COC(=O)C1=C(c2cc(OC)c(OC)c(OC)c2)OC(c2cc(OC)c(OC)c(OC)c2)C1 (stereo unspecified) | 24.8 µM (inactive) | 36.5 µM (inactive) | 24.1 µM (inactive) | 22.7 µM | – | 37.8 µM (inactive) | 28.8 µM (inactive) | 22.5 µM (inactive) | 22.9 µM (inactive) | 34.4 µM (inactive) | 53.1 µM (inactive) | 16 µM (inactive) | 25.6 µM (inactive) | 18 µM (inactive) | 23.9 µM (inactive) | 21.8 µM (inactive) | 10.7 µM (inactive) | 12 µM (inactive)
COc1cc(/C=C2\[C@@H]3NC(Cc4c(OC)c(C)c(OC)c(OC)c43)C(=O)N2Cc2ccccc2)c(OC)c(C)c1OC | 48.6 µM (inactive) | 41.5 µM (inactive) | 30.8 µM (inactive) | – | 24.6 µM (inactive) | 54.1 µM (inactive) | 34.3 µM (inactive) | 37.8 µM (inactive) | 27.5 µM (inactive) | 66.4 µM (inactive) | 60.7 µM (inactive) | 34.1 µM (inactive) | 26.2 µM (inactive) | 25 µM (inactive) | 34.7 µM (inactive) | 48 µM (inactive) | 20 µM (inactive) | 32.3 µM (inactive)
CC(=O)CC(=O)Nc1ccc(OS(N)(=O)=O)cc1 | > 100 µM (inactive) | > 100 µM (inactive) | > 100 µM (inactive) | > 100 µM | > 100 µM (inactive) | > 100 µM (inactive) | > 100 µM (inactive) | > 100 µM (inactive) | > 100 µM (inactive) | > 100 µM (inactive) | > 100 µM (inactive) | > 100 µM (inactive) | > 100 µM (inactive) | > 100 µM (inactive) | > 100 µM (inactive) | > 100 µM (inactive) | > 100 µM (inactive) | > 100 µM (inactive)
CC1(C)C=C(N2CCN(C3=CC(C)(C)NC(C)(C)C3)CC2)CC(C)(C)N1 | > 100 µM (inactive) | > 100 µM (inactive) | > 100 µM (inactive) | > 100 µM | > 100 µM (inactive) | > 100 µM (inactive) | > 100 µM (inactive) | > 100 µM (inactive) | > 100 µM (inactive) | > 100 µM (inactive) | > 100 µM (inactive) | > 100 µM (inactive) | > 100 µM (inactive) | > 100 µM (inactive) | > 100 µM (inactive) | > 100 µM (inactive) | > 100 µM (inactive) | > 100 µM (inactive)
CCOC(=O)/C(=C\c1ccc(OCc2ccccc2)c(OC)c1)C(=O)c1ccccc1 | 20 µM (inactive) | > 10 µM (inactive) | 23.6 µM (inactive) | 20.4 µM | 20.1 µM (inactive) | 18.9 µM (inactive) | 19.9 µM (inactive) | 19.5 µM (inactive) | 18.3 µM (inactive) | 16.7 µM (inactive) | 14.6 µM (inactive) | 17.9 µM (inactive) | 64.9 µM (inactive) | 33 µM (inactive) | > 10 µM (inactive) | 24.7 µM (inactive) | – | 36 µM (inactive)
Cc1ccc(N2C(=O)/C(=C3\Sc4c(nc(C)n(C)c4=O)N3c3ccccc3)SC2=S)cc1 | 36.9 µM (inactive) | 49.2 µM (inactive) | > 100 µM (inactive) | > 100 µM | > 100 µM (inactive) | – | > 100 µM (inactive) | > 100 µM (inactive) | > 100 µM (inactive) | 15.3 µM (inactive) | 41.1 µM (inactive) | 83.8 µM (inactive) | 54.8 µM (inactive) | > 100 µM (inactive) | > 100 µM (inactive) | 41.3 µM (inactive) | 33.8 µM (inactive) | 76.9 µM (inactive)
